Measurements taken from US20250195521A1 (Revolution Medicines, Inc., priority 2020, published 2025).
Like-named read-outs stand apart in the source and are kept apart here.

Columns and labels:
[1] = tested on: K-Ras G12C (NCI-H358 cells); test: Potency assay: pERK in NCI-H358 cells; type: cell-based, human; details: NCI-H358 cells, 4 hours, read-out: pERK EC50 (H358 KRAS G12C)
In short: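 Cells plated the day before were exposed for 4 h at 37° C, 5% CO2 to a 10-point, 3-fold DMSO dilution series (10 mM top stock), in duplicate. Phospho-ERK was read by AlphaLISA SureFire Ultra or by In-Cell Western with DRAQ5 DNA stain, and IC50 came from a 4-parameter sigmoidal fit.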

KRAS Q61H = KRAS Q61H (Homo sapiens (Human), UniProt P01116+P62937, Q61H); test: Ras-Raf disruption/FRET/MOA assay (BRAF RBD, Cyclophilin A); type: biochemical
KRAS Q61H, sequence (P01116 other isoform, or with tags, fused parts or gaps Q61H): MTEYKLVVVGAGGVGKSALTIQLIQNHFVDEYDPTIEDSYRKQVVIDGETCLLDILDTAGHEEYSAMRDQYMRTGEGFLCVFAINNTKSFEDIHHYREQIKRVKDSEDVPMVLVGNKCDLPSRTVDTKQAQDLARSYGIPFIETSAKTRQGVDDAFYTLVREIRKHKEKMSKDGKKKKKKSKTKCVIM
KRAS Q61H, sequence (P62937 whole entry): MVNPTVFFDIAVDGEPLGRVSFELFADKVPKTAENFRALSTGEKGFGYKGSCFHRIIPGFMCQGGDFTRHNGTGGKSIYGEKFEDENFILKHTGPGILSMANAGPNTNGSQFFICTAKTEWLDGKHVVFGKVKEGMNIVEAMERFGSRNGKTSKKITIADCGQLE
In short: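 25 μM tagless Cyclophilin A, 12.5 nM His6-Ras-GMPPNP and 50 nM GST-BRAF RBD in HEPES pH 7.3 buffer with 5 mM MgCl2, with compound (10-point 3-fold series from 30 μM final) for 3 h at 25 °C. Anti-His Eu and anti-GST APC then added for 1.5 h. IC50 from TR-FRET ratio decrease versus DMSO.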

NRAS WT = NRAS WT (Homo sapiens (Human), UniProt P01111+P62937); test: as above; type: biochemical
NRAS WT, sequence (P01111 whole entry): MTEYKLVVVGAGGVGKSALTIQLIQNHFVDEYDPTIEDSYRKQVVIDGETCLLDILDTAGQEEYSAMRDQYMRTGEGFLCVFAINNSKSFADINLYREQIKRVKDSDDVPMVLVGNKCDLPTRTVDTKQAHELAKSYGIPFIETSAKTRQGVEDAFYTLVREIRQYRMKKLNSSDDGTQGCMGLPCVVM
NRAS WT, sequence (P62937 whole entry): as the sequence (P62937 whole entry) above
In short: (§1)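 TR-FRET readout: anti-His Eu-W1024 (10 nM) and anti-GST allophycocyanin (50 nM) added after 3 h, 25° C compound incubation, then 1.5 h more. Decrease in FRET ratio versus DMSO wells marks Ras:RAF disruption; IC50 reported.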

NRAS Q61R = NRAS Q61R (Homo sapiens (Human), UniProt P01111+P62937, Q61R); test: as above; type: biochemical
NRAS Q61R, sequence (P01111 whole entry Q61R): as the sequence (P01111 whole entry) above, with Q61R counted along it
NRAS Q61R, sequence (P62937 whole entry): as the sequence (P62937 whole entry) above
In short: as §1

SMILES | EC50 ([1]; Homo sapiens) [µM] | also measured
CCn1c(-c2cccnc2[C@H](C)OC)c2c3cc(ccc31)-c1cc(O)cc(c1)C[C@H](NC(=O)[C@H](C(C)C)N(C)C(=O)[C@H]1CCN(C(C)=O)C1)C(=O)N1CCC[C@H](N1)C(=O)OCC(C)(C)C2 [Compound A5] | < 5 | 
CCn1c(-c2cccnc2[C@H](C)OC)c2c3cc(ccc31)-c1csc(n1)C[C@H](NC(=O)[C@H](C(C)C)N(C)C(=O)[C@H]1CCN(C(=O)CN(C)C)C1)C(=O)N1CCC[C@H](N1)C(=O)OCC(C)(C)C2 [Compound A97] | < 5 | 
CCn1c(-c2cccnc2[C@H](C)OC)c2c3cc(ccc31)-c1cccc(c1)C[C@H](NC(=O)[C@H](C(C)C)N(C)C(=O)[C@H]1CCNC1)C(=O)N1CCC[C@H](N1)C(=O)OCC(C)(C)C2 [Compound A119] | < 5 | 
CCn1c(-c2cccnc2[C@H](C)OC)c2c3cc(ccc31)-c1cc(O)cc(c1)C[C@H](NC(=O)C(=C(C)C)N(C)C(C)=O)C(=O)N1CCC[C@H](N1)C(=O)OCC(C)(C)C2 [Compound A142] | < 5 | 
CCn1c(-c2cccnc2[C@H](C)OC)c2c3cc(ccc31)-c1cc(cc3nc[nH]c13)C[C@H](NC(=O)[C@H](C(C)C)N(C)C(C)=O)C(=O)N1CCC[C@H](N1)C(=O)OCC(C)(C)C2 [Compound A153] | < 5 | 
CCn1c(-c2cccnc2[C@H](C)OC)c2c3cc(ccc31)-c1cc(cc(S(C)(=O)=O)c1)C[C@H](NC(=O)[C@H](C(C)C)N(C)C(C)=O)C(=O)N1CCC[C@H](N1)C(=O)OCC(C)(C)C2 [Compound A154] | < 5 | 
CCn1c(-c2cccnc2[C@H](C)OC)c2c3cc(ccc31)-c1cc(O)cc(c1)C[C@H](NC(=O)[C@H](C(C)C)N(C)C(=O)[C@H]1CCN(C3CC3)C1)C(=O)N1CCC[C@H](N1)C(=O)OCC(C)(C)C2 [Compound A175] | < 5 | 
CCn1c(-c2cccnc2[C@H](C)OC)c2c3cc(ccc31)-c1csc(n1)C[C@H](NC(=O)[C@H](C(C)C)N(C)C(=O)C1COC1)C(=O)N1CCC[C@H](N1)C(=O)OCC(C)(C)C2 [Compound A245] | < 5 | 
CCn1c(-c2cccnc2[C@H](C)OC)c2c3cc(ccc31)-c1cccc(c1)C[C@H](NC(=O)[C@H](C(C)C)N(C)C(=O)C1COC1)C(=O)N1CCC[C@H](N1)C(=O)OCC(C)(C)C2 [Compound A246] | < 5 | 
CCn1c(-c2cccnc2[C@H](C)OC)c2c3cc(ccc31)-c1cc(O)cc(c1)C[C@H](NC(=O)[C@H](C(C)C)N(C)C(=O)C1CC(=O)N(C3CC3)C1)C(=O)N1CCC[C@H](N1)C(=O)OCC(C)(C)C2 (stereo partly shown) [Compound A252] | < 5 | 
CCn1c(-c2cccnc2[C@H](C)OC)c2c3cc(ccc31)-c1csc(n1)C[C@H](NC(=O)[C@H](C(C)C)N(C)C(=O)N1CCN(C(C)=O)CC1)C(=O)N1CCC[C@H](N1)C(=O)OCC(C)(C)C2 [Compound A291] | < 5 | IC50 (KRAS Q61H): 0.01 to 0.1 µM; IC50 (NRAS WT): 0.01 to 0.1 µM
CCn1c(-c2cccnc2[C@H](C)OC)c2c3cc(ccc31)-c1csc(n1)C[C@H](NC(=O)[C@H](C(C)C)N1CCCN(C)C1=O)C(=O)N1CCC[C@H](N1)C(=O)OCC(C)(C)C2 [Compound A317] | < 5 | 
CCN(CC)C(=O)N(C)[C@H](C(=O)N[C@H]1Cc2nc(cs2)-c2ccc3c(c2)c(c(-c2cccnc2[C@H](C)OC)n3CC)CC(C)(C)COC(=O)[C@@H]2CCCN(N2)C1=O)C(C)C [Compound A351] | < 5 | 
CCn1c(-c2cccnc2[C@H](C)OC)c2c3cc(ccc31)-c1cc(O)cc(c1)C[C@H](NC(=O)[C@H](C(C)C)N(C)C(=O)[C@H]1CCN(C(=O)[C@@H](C)N(C)C)C1)C(=O)N1CCC[C@H](N1)C(=O)OCC(C)(C)C2 [Compound A386] | < 5 | 
CCn1c(-c2cc(N3CCN(C)CC3)cnc2[C@H](C)OC)c2c3cc(ccc31)-c1nc(co1)C[C@H](NC(=O)[C@H]1[C@H](C)[C@@H]1C)C(=O)N1CCC[C@H](N1)C(=O)OCC(C)(C)C2 [Compound A391, (1r,2R,3S)—N-((6^3S,4S,Z)-1^1-ethyl-1^2-(2-((S)-1-methoxyethyl)-5-(4-methylpiperazin-1-yl)pyridin-3-yl)-10,10-dimethyl-5,7-dioxo-6^1,6^2,6^3,6^4,6^5,6^6-hexahydro-1^1H-8-oxa-2 (2,4)-oxazola-1 (5,3)-indola-6 (1,3)-pyridazinacycloundecaphane-4-yl)-2,3-dimethylcyclopropane-1-carboxamide] |  | EC50 [1]: < 5 µM
CCn1c(-c2cccnc2[C@H](C)OC)c2c3cc(ccc31)-c1cc(O)cc(c1)C[C@H](NC(=O)[C@H](C(C)C)N(C)C(=O)[C@@H]1CCCC[C@@H]1N)C(=O)N1CCC[C@H](N1)C(=O)OCC(C)(C)C2 [Compound A395] | < 5 | 
CCn1c(-c2cccnc2[C@H](C)OC)c2c3cc(ccc31)-c1csc(n1)C[C@H](NC(=O)[C@H](C(C)C)N(C)C(=O)N1CCOC[C@@H]1C)C(=O)N1CCC[C@H](N1)C(=O)OCC(C)(C)C2 [Compound A403] | < 5 | 
CCn1c(-c2cccnc2[C@H](C)OC)c2c3cc(ccc31)-c1cc(O)cc(c1)C[C@H](NC(=O)[C@H](C(C)C)N(C)C(=O)C1CN3CCCN1CC3)C(=O)N1CCC[C@H](N1)C(=O)OCC(C)(C)C2 (stereo partly shown) [Compound A404] | < 5 | 
CCn1c(-c2cccnc2[C@H](C)OC)c2c3cc(ccc31)-c1cc(O)cc(c1)C[C@H](NC(=O)[C@H](C(C)C)N(C)C(=O)C1CCC3(CCOC3)O1)C(=O)N1CCC[C@H](N1)C(=O)OCC(C)(C)C2 (stereo partly shown) [Compound A409] | < 5 | IC50 (KRAS Q61H): 0.01 to 0.1 µM; IC50 (NRAS Q61R): 0.1 to 1 µM; IC50 (NRAS WT): 0.01 to 0.1 µM
CCn1c(-c2cccnc2[C@H](C)OC)c2c3cc(ccc31)-c1cc(O)cc(c1)C[C@H](NC(=O)[C@H](C(C)C)N(C)C(=O)C13CCC(CO1)C3)C(=O)N1CCC[C@H](N1)C(=O)OCC(C)(C)C2 [Compound A411] | < 5 | 
CCn1c(-c2cccnc2[C@H](C)OC)c2c3cc(ccc31)-c1cc(O)cc(c1)C[C@H](NC(=O)[C@H](C(C)C)N(C)C(=O)[C@@H]1[C@H]3CC[C@H](C3)[C@@H]1N)C(=O)N1CCC[C@H](N1)C(=O)OCC(C)(C)C2 [Compound A417] | < 5 | 
CCn1c(-c2cccnc2[C@H](C)OC)c2c3cc(ccc31)-c1cc(O)cc(c1)C[C@H](NC(=O)[C@H](C(C)C)N(C)C(=O)[C@H]1OCC[C@H]1c1ccccc1)C(=O)N1CCC[C@H](N1)C(=O)OCC(C)(C)C2 [Compound A425] | < 5 | 
CCn1c(-c2cccnc2[C@H](C)OC)c2c3cc(ccc31)-c1cc(O)cc(c1)C[C@H](NC(=O)[C@H](C(C)C)N(C)C(=O)C1CNCCNC1)C(=O)N1CCC[C@H](N1)C(=O)OCC(C)(C)C2 [Compound A432] | < 5 | 
CCO[C@@H]1c2nc(cs2)-c2ccc3c(c2)c(c(-c2cc(C4CCN(C5COC5)CC4)cnc2[C@H](C)OC)n3CC)CC(C)(C)COC(=O)[C@@H]2CCCN(N2)C(=O)[C@H]1NC(=O)[C@H]1[C@H](C)[C@@H]1C [Compound A449, (1r,2R,3S)—N-((6^3S,3S,4S,Z)-3-ethoxy-1^1-ethyl-1^2-(2-((S)-1-methoxyethyl)-5-(1-(oxetan-3-yl)piperidin-4-yl)pyridin-3-yl)-10,10-dimethyl-5,7-dioxo-6^1,6^2,6^3,6^4,6^5,6^6-hexahydro-1^1H-8-oxa-2 (4,2)-thiazola-1 (5,3)-indola-6 (1,3)-pyridazinacycloundecaphane-4-yl)-2,3-dimethylcyclopropane-1-carboxamide] |  | IC50 (KRAS Q61H): 0.1 to 1 µM; EC50 [1]: < 5 µM
CCn1c(-c2cccnc2[C@H](C)OC)c2c3cc(ccc31)-c1csc(n1)[C@@H](OCC1CCN(C)CC1)[C@H](NC(=O)[C@H]1C[C@@H]1C)C(=O)N1CCC[C@H](N1)C(=O)OCC(C)(C)C2 [Compound A451, (1S,2S)—N-((6^3S,3S,4S,Z)-1^1-ethyl-1^2-(2-((S)-1-methoxyethyl)pyridin-3-yl)-10,10-dimethyl-3-((1-methylpiperidin-4-yl)methoxy)-5,7-dioxo-6^1,6^2,6^3,6^4,6^5,6^6-hexahydro-1^1H-8-oxa-2 (4,2)-thiazola-1 (5,3)-indola-6 (1,3)-pyridazinacycloundecaphane-4-yl)-2-methylcyclopropane-1-carboxamide] |  | IC50 (KRAS Q61H): 0.1 to 1 µM; EC50 [1]: < 5 µM
CCn1c(-c2cc(N3CCN(C)CC3)cnc2[C@H](C)OC)c2c3cc(ccc31)-c1csc(n1)C[C@H](NC(=O)[C@H](C(C)C)N(C)C(=O)N1CC(OC)C1)C(=O)N1CCC[C@H](N1)C(=O)OCC(C)(C)C2 [Compound A466] | < 5 | IC50 (KRAS Q61H): 0.01 to 0.1 µM; IC50 (NRAS WT): 0.01 to 0.1 µM
CCOC1c2nc(cs2)-c2ccc3c(c2)c(c(-c2cc(C4CC5COCC(C4)N5C4CC4)cnc2C(C)OC)n3CC)CC(C)(C)COC(=O)C2CCCN(N2)C(=O)C1NC(=O)C1C(C)C1C [Compound A483, (1r,2R,3S)—N-((6^3S,3S,4S,Z)-12-(5-((1R,5S,7s)-9-cyclopropyl-3-oxa-9-azabicyclo[3.3.1]nonan-7-yl)-2-((S)-1-methoxyethyl)pyridin-3-yl)-3-ethoxy-1^1-ethyl-10,10-dimethyl-5,7-dioxo-6^1,6^2,6^3,6^4,6^5,6^6-hexahydro-1^1H-8-oxa-2 (4,2)-thiazola-1 (5,3)-indola-6 (1,3)-pyridazinacycloundecaphane-4-yl)-2,3-dimethylcyclopropane-1-carboxamide] |  | IC50 (KRAS Q61H): 0.01 to 0.1 µM; EC50 [1]: < 5 µM
CCn1c(-c2cccnc2[C@H](C)OC)c2c3cc(ccc31)-c1cc(O)cc(c1)C[C@H](NC(=O)[C@H](C(C)C)N(C)C(=O)[C@@H]1OCC[C@H]1c1ccccc1)C(=O)N1CCC[C@H](N1)C(=O)OCC(C)(C)C2 [Compound A584] | < 5 | IC50 (KRAS Q61H): 0.01 to 0.1 µM; IC50 (NRAS WT): 0.01 to 0.1 µM
